For 89 compounds, melting point results are on record in a melting point compilation (Tetko et al.; mined from patent text by program, amines drawn as free bases though some values may be those of a salt).

`Cc1nnc(C=Cc2ccccc2O)s1` yielded a melting point of 253 to 254 °C.
In the case of `N#CC1CN1OCc1ccc(Cl)cc1` (centres undefined), the melting point fell in the range of 45 to 48 °C.
The value for `CCOC(=O)/C(=C\Nc1cc(OC)ccc1OC)c1ccccc1` was 93 to 94 °C.
Take `O=C(C=Cc1ccccc1)N1CCc2c([nH]c3ccccc23)C12CCC(c1cccc(F)c1)(N1CCC1)CC2` (centres undefined): the melting point was 120 to 126 °C.
Under `CCOC(=O)C(C)(C)Sc1ncnc2c(O)n(C)nc12` stands 155 to 156 °C.
The value for `Oc1c(Br)cc(F)cc1Cc1cc(Cl)cc(Cc2cc(F)cc(Br)c2O)c1O` was 192 to 194 °C; that for `COc1c(Br)cc(Br)cc1C1(C#N)CCCCC1` was 100 to 102 °C.
The value for `O=c1c2c(CCc3cccc([N+](=O)[O-])c3)n[nH]c2c2cccnc2n1-c1ccccc1` was 245 to 247 °C; that for `COc1ccc(-c2cc3nccnc3[nH]2)cc1OC` was 212 to 214 °C; that for `Cc1nc(-c2cc(C(C)(C)C)c3c(c2)C(C)(C)CO3)no1` was 81 to 82 °C.
For the compound `CC(C)(C)OC(=O)N1C[C@@H](c2c[nH]c3ccccc23)[C@H](c2cn3c4c(cccc24)CCC3)C1`, the melting point fell in the range of 239 to 240 °C.
Under `O=C1C(CCO)Oc2ccccc2N1Cc1ccncc1` (centres undefined) stands 153 to 154 °C.
The value for `CCc1cc2c(O)c(C#N)c(=O)oc2cc1C` was 224 to 226 °C.
The value for `CC(C)c1cc(-c2c3ccccc3c(Br)c3sc4ccccc4c23)cc(C(C)C)c1OCC(=O)O` was 220 to 221 °C; that for `Cc1ccc(C(Cl)=C(Cl)Cl)cn1` was 37 to 39 °C; that for `Cc1cccc([N+](=O)[O-])c1C=NO` was 190 to 192 °C.
`O=C(NC(=O)c1c(F)cccc1F)Nc1cc(Br)c(Br)cc1C(F)(F)F`: the melting point was 203 °C.
The compound `C=Cn1c(C)c(C)c2cnnc(OCc3ccccc3)c21` showed a melting point of 85 to 86 °C.
Under `Cc1c(C)c2c(c(C)c1NC(=O)CC(C)(C)C)C(c1ccc(C(C)(C)O)cc1)CO2` (centres undefined) stands 132 to 134 °C; under `COc1ncc(Br)cc1/C=C/C(=O)c1ccc(Cl)cc1`, 168 to 172 °C.
The value for `Clc1ccc(C(c2ccccc2)N2CCN(c3nc4cccc5c4n3CCC5)CC2)cc1` (centres undefined) was 167 to 169 °C.
Under `CCCCCCCCCCCCCCCCCCN(C)CC(O)CO` (centres undefined) stands 59 °C; under `COP(=O)(Cc1cc(Cl)c(O)c(C(C)(C)C)c1)OC`, 107 °C; under `Nc1scc2c(C(=O)O)nn(-c3ccc(Br)cc3)c(=O)c12`, > 300 °C.
For `O=C1CC(O)CC(/C=C/c2c(Cl)cc(Cl)cc2OCc2ccccc2)O1` (centres undefined), the melting point lay within 109 to 112 °C.
Under `CCNC(=O)Nc1ccc(-c2sc3c(c2CN(C)CCC(=O)NCCOC)c(=O)n(-c2ccccc2)c(=O)n3Cc2c(F)cccc2F)cc1` stands 240 to 244 °C.
On to `CCOC(=O)CSc1c(C(=O)OCC)[nH]c2cc(Cl)cc(Cl)c12`, for which the melting point was in the range of 152 to 153 °C.
The value for `Cc1nc(Nc2ccccc2)nc(C#N)c1C` was 181 to 184 °C; that for `O=C(Nc1ccccc1Cl)c1ccccc1SSc1ccccc1C(=O)Nc1ccccc1Cl` was 247 to 249 °C; that for `Oc1ccc(-c2ccc(-c3ccccc3)nc2-c2ccc(OCCN3CCCC3)cc2)cc1` was 176 to 178 °C.
Under `CC1(C)C(C(=O)O)C1C(OS(C)(=O)=O)C(Br)(Br)Br` (centres undefined) stands 168 °C; under `CCCc1c2c(c(O)c3c(=O)cc(C(=O)O)oc13)C(O)CCC2` (centres undefined), 245 to 249 °C.
For the compound `COC(=O)c1ccc(Oc2cc3c(cc2Br)C(C)(C)CCC3(C)C)cc1`, the melting point was in the range of 135 to 136 °C.
The compound `Cc1cc(NCCOC(=O)c2ccccc2)c2[nH]ncc2n1` displayed a melting point of 136 to 138 °C.
`CC(=O)OC1CSC(Oc2cc(-c3cccnc3)ccc2Cl)C(OC(C)=O)C1OC(C)=O` (centres undefined) registered a melting point of 155 °C.
The value for `CCN(CC)CCNC(=NC#N)NCCCSc1nccc(NC(N)=NCC(F)(F)F)n1` was 76 to 80 °C; that for `O=C1CN=C(c2ccccc2)c2cc(NO)ccc2N1` was 186 to 187 °C.
Under `CCCCc1nc2c(N)nc3ccccc3c2n1CCCCN1CCCS1(=O)=O` stands 173 to 176 °C; under `O=Cc1c2ccccc2c(C=O)c2cc3ccccc3cc12`, 215 to 217 °C; under `N#CCC1(c2ccc(Cl)cc2)CCC1`, 63 to 65 °C.
The value for `COc1ccc(C(=O)Nc2ccccc2)cc1NC(=S)Nc1ccc(Cl)c([N+](=O)[O-])c1` was 174 to 175 °C; that for `COC(=O)c1cc(-c2ccccc2)c(=O)n2c1-c1sccc1CN2C` was 180 to 181 °C; that for `C=CC(CSCCC(F)(F)C(F)(F)C(F)(F)C(F)(F)C(F)(F)C(F)(F)F)SSc1nc2ccccc2s1` (centres undefined) was 47 to 48 °C.
Turning to `Cc1nc2c(N)nc3ccccc3c2n1OCCOc1ccccc1`, the melting point is 237 to 239 °C.
The value for `CCOC(=O)C1=C(C)NC(C)=C(C(=O)OC)C1c1cccc2ccccc12` (centres undefined) was 196 to 197 °C.
Under `C[Si](C)(C)C#C[C@@]1(O)[C@@H](COC(=O)c2ccc(Cl)cc2)OC(O)[C@@H]1O` (some centres undefined) stands 130 to 132 °C.
Under `CCOC(=O)c1c(-c2ccc(Cl)s2)ccnc1C(C(=O)OCC)c1cc(OC)cc(OC)n1` (centres undefined) stands 127 to 132 °C; under `COc1ccc(-c2cc(C(N)(C(F)(F)F)C(F)(F)F)sc2-c2ccc(OC)cc2)cc1`, 87 to 90 °C.
Compound `CCCCCS(=O)(=O)NC(=O)/C=C/c1ccc(OCC(O)COC(C)C)cc1Oc1ncc(C(F)(F)F)cc1Cl` (centres undefined) gave a melting point of 86 to 88 °C.
Under `OCC1OC(n2cnc3c(Nn4ccc5ccccc54)ncnc32)C(O)C1O` (centres undefined) stands 155 °C; under `CCC(CC)(COc1nn2ccnc2cc1C)CS(N)(=O)=O`, 210 to 211 °C; under `O=C(c1ccc(F)cc1)N1CCCC(c2nc(-c3cccc(F)c3)no2)C1` (centres undefined), 86 to 89 °C.
Under `O=CNCC1CN(c2c(F)cc3c(=O)c(C(=O)O)cn(C4CC4)c3c2F)CCO1` (centres undefined) stands 210 to 213 °C; under `O=S(=O)(c1ccccc1)c1cnc2c(N3CCNCC3)cccc2c1`, 164 °C.
Under `Cc1nc2c(OCc3ccccc3)cc(CO)cn2c1C` stands 213 to 215 °C.
For the compound `CC1(C)OC(=O)Nc2ncc(-c3cccc(Cl)c3)cc21`, the melting point fell in the range of 214 to 215 °C.
Under `CCOC(=O)c1cnn(Cc2ccc(OCc3nc(-c4ccccc4)oc3C)cc2)c1` stands 108 to 109 °C; under `CCCc1nc2cc(C)c(NC(=O)c3cc(C(F)(F)F)nn3-c3ncccc3Cl)c(C(=O)NC(C)C)c2cc1CC`, 213 to 220 °C; under `Cc1cc(=O)n2nc(C)n(N)c2n1`, 287 to 289 °C.
The value for `C=CCOc1cc2c(cc1CC=C)CCC(=O)N2CC=C(C)C` was 20 to 28 °C; that for `O=C(Nc1ccc(Oc2ccccc2)cc1)N1CCN(c2ccnc3c(Cl)cccc23)CC1` was 174 to 175 °C.
The value for `O=C1NCN(c2ccccc2)C12CCN(CC1=Cc3cc(Cl)ccc3CC1)CC2` was 191 to 192 °C; that for `CN1C(=O)NC(=O)C(C=O)C1=O` (centres undefined) was 197 to 199 °C.
For `CCn1nc(Br)c([N+](=O)[O-])c1Br`, the melting point was 119 to 121 °C.
The value for `COC(=O)[C@H](Cc1ccccc1)NC(=S)Cc1cc(C)ccc1C` was 63.5 to 64 °C; that for `Cc1cc2c(cc1Br)N(C1CC1)C=NS2(=O)=O` was 219 to 220 °C; that for `CCOc1nc2cc(OC)cc(C)c2c(=O)o1` was 138 to 140 °C.
The value for `COC(=O)CC(=O)C[C@@H]1CC(=O)N1` was 45 to 46.5 °C.
As to `CC(C)(C)c1cc(SCCC(=O)NC2CCC3CC2C3(C)C)cc(C(C)(C)C)c1O` (centres undefined), the melting point is 152 to 154 °C.
Under `CC(=O)c1ccc(OCCCCCOc2ccc3c(=O)cc(C(=O)O)oc3c2)cc1O` stands 226 to 228 °C; under `COc1cc2c(OC)cccc2cc1-c1nc2cnccc2[nH]1`, 178 to 180 °C; under `O=C(O)CCc1c(C(=O)O)[nH]c2cc(Br)ccc12`, 234 to 235 °C.
Under `O=C(CCCCl)CN1C(=O)c2ccccc2C1=O` stands 133 to 134 °C.
The value for `CCOc1ccc(C(=O)N2CCc3nnc(NN)cc3C2)cc1` was 171 to 173 °C.
Regarding `CC(=NO)c1cccc(NC(=O)NC2N=C(c3ccccc3F)c3cccc(C)c3N(CC(=O)N3CC4CCC(CC4)C3)C2=O)c1` (centres undefined), the melting point was 199 to 208 °C.
Under `CCC(C)C(NC(=O)OCc1ccccc1)C(=O)NC(Cc1c[nH]c2ccccc12)C(=O)OC` (centres undefined) stands 152 to 155 °C; under `Cc1ccc(S(=O)(=O)Oc2ccc(S(=O)(=O)Cc3cccnn3)cc2)cc1`, 161 °C; under `Cn1c(-c2ccccc2)nc2nc(-c3ccc(Cl)cc3)nn2c1=S`, 267 to 270 °C.
Under `O=S(CCCCOc1ccc(C2=C(c3ccccc3)CCCc3cc(O)ccc32)cc1)CCCC(F)(F)C(F)(F)F` (centres undefined) stands 155 °C; under `CSc1nnc(C(C)(C)C)c(=O)n1C`, 90 to 100 °C; under `C=CC1(O)CN2CCC1CC2` (centres undefined), 76 to 80 °C.
Under `CCN(Cc1ccc(C(=O)O)cc1)c1cc(Br)ccc1OCc1ccccc1` stands 94.5 to 95 °C; under `CC1(O/N=C(\C(=O)O)c2csc(N)n2)CCCCC1`, 203 to 204 °C.
`CN1C=C(N2CCCC2)c2ccc3ccccc3c2S1(=O)=O` displayed a melting point of 176 to 178 °C.
On to `CCc1oc2ccccc2c1C(=O)N(Cc1ccccc1)Cc1ccc2c(Br)c(OCC#N)ccc2c1`, for which the melting point was 92 to 100 °C.
Under `CC1(C)CCC(C)(C)c2cc3c(=O)ccoc3cc21` stands 202 °C; under `COc1ccc(N2CCOCC2)cc1NC(=S)c1nc2ccccc2[nH]1`, 236 to 237 °C.
Under `N#CC1=C(C2CC2)Nc2n[nH]cc2C1c1cccc(N2CCOCC2)c1` (centres undefined) stands > 260 °C.
Under `CCOC(=O)C1=C(N)NC(N)=C(C(=O)OCC)C1c1c(OC)ncnc1OC` stands 219 °C.
